Laboratory results: PMC4773817 (2016)

Assays:
[1] = tested on: PS2.M 5'-side loop n=17 (DNA, G4) GTGGGTTTTTTTTATTTTTTTTGGGCGGGTTGG; test: luminescence enhancement; settings: 9.2-fold emission enhancement
[2] = tested on: PS2.M (DNA, G4) GTGGGTAGGGCGGGTTGG; test: fluorescent intercalator displacement (G4-FID); settings: Tris-HCl buffer; thiazole orange displaced
[3] = tested on: CCR5-DEL (DNA, single strand) CTCATTTTCCATACATTAAAGATAGTCAT; test: luminescence enhancement; settings: 1 μM compound, 5 μM DNA, 10 mM Tris, pH 7.4
[4] = tested on: HP1 (DNA, hairpin) GGTACGTGGCTGAGGCCAGTGGGTAGGGCGGGTTGGCCTCAGCCACGTACC; test: luminescence enhancement; settings: 1.1-fold emission enhancement
[5] = tested on: HP5 (DNA, hairpin) ACGTGGCTGAGGCCAGTGGGTAGGGCGGGTTGGCCTCAGCCACGT; test: luminescence enhancement; settings: HP5 formed in assay without Nt.BbvCI
[6] = tested on: ds26 (DNA, duplex) CAATCGGATCGAATTCGATCCGATTG; test: FRET melting competition; settings: ds26 (2 μM, 10-fold excess) as competitor of 0.2 μM labelled PS2.M; 3 μM compound; no significant change
[7] = tested on: FPS2.MT (labelled PS2.M) (DNA, G4) GTGGGTAGGGCGGGTTGG; test: FRET melting; settings: not printed (procedure from ref. 50); 3 μM compound, 0.2 μM DNA
[8] = tested on: PS2.M 5'-side loop n=1 (DNA, G4) GTGGGAGGGCGGGTTGG; test: luminescence enhancement; settings: 4.2-fold emission enhancement
[9] = tested on: F10T (DNA, hairpin, hexaethylene glycol (HEG) linker between nucleotides 8 and 9) TATAGCTATATAGCTATAT; test: FRET melting; settings: 3 μM compound, 0.2 μM DNA; no significant variation

binding [1]: yes
G4DC50 [2]: 7.0 µM
binding [3]: weak
binding [4]: weak
binding [5]: weak
binding [6]: weak
ΔTm [7]: ~ 12 °C
binding [8]: yes
binding [9]: no
SMILES: [Ir+3].[Ir+3].[c-]1ccccc1-c1ccc2ccccc2n1.[c-]1ccccc1-c1ccc2ccccc2n1.[c-]1ccccc1-c1ccc2ccccc2n1.[c-]1ccccc1-c1ccc2ccccc2n1.c1ccc(N(CCCCCN(c2ccccn2)c2ccccn2)c2ccccn2)nc1
